Earlier results, collected in article PMC10804683, “Identification of the pyridoxal 5′‐phosphate allosteric site in human pyridox(am)ine 5′‐phosphate oxidase” (Protein Science : A Publication of the Protein Society, 2024).

Biological target: T1, human PNPO wild type (Homo sapiens, UniProt Q9NVS9)
T1 sequence (Q9NVS9 1-261): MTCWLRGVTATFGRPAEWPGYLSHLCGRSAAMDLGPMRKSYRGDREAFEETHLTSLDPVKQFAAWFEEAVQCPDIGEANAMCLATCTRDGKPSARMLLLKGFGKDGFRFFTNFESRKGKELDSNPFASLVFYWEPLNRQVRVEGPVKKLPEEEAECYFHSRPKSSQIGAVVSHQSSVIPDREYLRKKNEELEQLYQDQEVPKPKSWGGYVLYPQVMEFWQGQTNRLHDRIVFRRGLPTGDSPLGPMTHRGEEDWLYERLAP
Design: a main form corresponding to the entire protein; made in house; host or cells: E. coli BL21(DE3); method as in Barile et al., [2020]
Conditions: substrate-enzyme-PLP ternary complex, ref Barile et al., [2020]; cited from earlier work

Cc1ncc(COP(=O)(O)O)c(C=O)c1O [PLP, pyridoxal 5′‐phosphate]
coefficient by which kCAT is reduced with PLP bound at the allosteric site: around 0.15
